Assay results taken from patent US9227971B2, “Pyrazolo[1,5-a]pyrimidine compounds as mTOR inhibitors” (Merck Sharp & Dohme Corp., priority 2010, dated 2016).
pIC50: −log10 of the molar value. Where two headings read alike, the source gives them in different places.

Tests used:
[1] = test system: phosphorylated 4E-BP1 Thr37/46 (p4E-BP1 Thr37/46), mTORC1 activity, PC3 cells; assay: mTOR target engagement assay, immunofluorescent cell-based, p4E-BP1 Thr37/46 readout (mTORC1 activity); details: Homo sapiens, read-out: p4E-BP1 Thr37/46 IC50
Outline: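 Cell-based immunofluorescence in PC3 cells: serially diluted compounds (0.25% DMSO, 5% FBS) applied for ninety minutes at 37° C before fixation and overnight 4° C staining of p4E-BP1 Thr37/46. Untreated DMSO wells set maximal phosphorylation; IC50 obtained by logistic fitting.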

[2] = test system: phosphorylated AKT Ser473 (pAKT S473), mTORC2 activity, PC3 cells; assay: mTOR target engagement assay, immunofluorescent cell-based, pAKT S473 readout (mTORC2 activity); details: Homo sapiens
Outline: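 After blocking, cells were stained overnight at 4 °C with anti-pAKT S473 antibody, then a fluorescent secondary; inhibition was read as reduced fluorescence intensity.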

[3] = PC-3, PC3 cells, compound treatment ninety minutes at 37° C.

CC(=O)c1c([C@H]2CC3CC[C@H](C2)N3C(=O)c2nnc[nH]2)nc2c(-c3cnc4c(c3)OCCC4O)cnn2c1N (stereo partly drawn) [Compound 7.63, 1-(5-((1R,3s,5S)-8-(4H-1,2,4-triazole-3-carbonyl)-8-azabicyclo[3.2.1]octan-3-yl)-7-amino-3-(4-hydroxy-3,4-dihydro-2H-pyrano[3,2-b]pyridin-7-yl)pyrazolo[1,5-a]pyrimidin-6-yl)ethanone] was tested. Which pIC50 ([1]; PC-3, PC3 cells) did it give?
The pIC50 was 7.00 to 9.00.

What about the pIC50 ([2]; PC-3, PC3 cells) of the same compound?
The pIC50 was 6.00 to 7.00.

How did the pIC50 [1, 3] turn out when CC(=O)c1c([C@@H]2C[C@H]3CC[C@@H](C2)N3C(=O)c2nnc[nH]2)nc2c(-c3ccc(C(C)O)nc3)cnn2c1N (stereo partly drawn) [Compound 7.4, 1-(5-((1R,3s,5S)-8-(4H-1,2,4-triazole-3-carbonyl)-8-azabicyclo[3.2.1]octan-3-yl)-7-amino-3-(6-(1-hydroxyethyl)pyridin-3-yl)pyrazolo[1,5-a]pyrimidin-6-yl)ethanone] was run?
The pIC50 was 7.00 to 9.00.

What about the pIC50 [2, 3] of the same compound?
Its pIC50 is 7.00 to 9.00.

Which results are given for Nc1cc([C@@H]2C[C@H]3CC[C@@H](C2)N3C(=O)c2ncn[nH]2)nc2c(-c3ccc(CO)nc3)cnn12 [Compound 7.97, ((1R,3s,5S)-3-(7-amino-3-(6-(hydroxymethyl)pyridin-3-yl)pyrazolo[1,5-a]pyrimidin-5-yl)-8-azabicyclo[3.2.1]octan-8-yl)(1H-1,2,4-triazol-5-yl)methanone]?
pIC50 ([1]; PC-3, PC3 cells): 5.00 to 6.00; pIC50 ([2]; PC-3, PC3 cells): < 5.00

What does the source list for Nc1c(C2CC2)c([C@@H]2C[C@H]3CC[C@@H](C2)N3C(=O)c2nnc[nH]2)nc2c(-c3ccc(-c4ncc[nH]4)c(F)c3)cnn12 [Compound 6.36, ((1R,3s,5S)-3-(7-amino-6-cyclopropyl-3-(3-fluoro-4-(1H-imidazol-2-yl)phenyl)pyrazolo[1,5-a]pyrimidin-5-yl)-8-azabicyclo[3.2.1]octan-8-yl)(4H-1,2,4-triazol-3-yl)methanone]?
pIC50 ([1]; PC-3, Table 6-1, PC3 cells): 7.00 to 9.00; pIC50 ([2]; PC-3, Table 6-1, PC3 cells): 7.00 to 9.00

With CS(=O)(=O)c1c([C@@H]2C[C@H]3CC[C@@H](C2)N3C(=O)c2cc3cnccc3[nH]2)nc2c(-c3ccc(-c4ccccc4)nc3)cnn2c1N [Compound 3.76, ((1R,3s,5S)-3-(7-amino-6-(methylsulfonyl)-3-(6-phenylpyridin-3-yl)pyrazolo[1,5-a]pyrimidin-5-yl)-8-azabicyclo[3.2.1]octan-8-yl)(1H-pyrrolo[3,2-c]pyridin-2-yl)methanone] as the compound, how does the pIC50 ([1]; PC-3, Table 3-1, PC3 cells) read?
Its pIC50 is 7.00 to 9.00.

What about the pIC50 ([2]; PC-3, Table 3-1, PC3 cells) of the same compound?
Its pIC50 is 7.00 to 9.00.

Which results are given for CC(=O)c1c([C@@H]2C[C@H]3CC[C@@H](C2)N3C(=O)c2cc(N)n[nH]2)nc2c(-c3ccc(-n4cc(C)cn4)nc3)cnn2c1N [Compound 1.1.132, 1-(7-amino-5-((1R,3s,5S)-8-(3-amino-1H-pyrazole-5-carbonyl)-8-azabicyclo[3.2.1]octan-3-yl)-3-(6-(4-methyl-1H-pyrazol-1-yl)pyridin-3-yl)pyrazolo[1,5-a]pyrimidin-6-yl)ethanone]?
pIC50 [1, 3]: 7.00 to 9.00; pIC50 [2, 3]: 7.00 to 9.00

Which results are given for COc1ccc(-c2ccc(-c3cnn4c(N)c(Br)c([C@@H]5C[C@H]6CC[C@@H](C5)N6C(=O)CO)nc34)cn2)cc1CO [Compound 2.2, 1-((1R,3s,5S)-3-(7-amino-6-bromo-3-(6-(3-(hydroxymethyl)-4-methoxyphenyl)pyridin-3-yl)pyrazolo[1,5-a]pyrimidin-5-yl)-8-azabicyclo[3.2.1]octan-8-yl)-2-hydroxyethanone]?
pIC50 [1, 3]: 6.00 to 7.00; pIC50 [2, 3]: 7.00 to 9.00

[2H]C1(O)CCCc2cc(-c3cnn4c(N)c(C(C)=O)c([C@H]5CC6CC[C@H](C5)N6C(=O)c5nnc[nH]5)nc34)cnc21 (stereo partly drawn) [Compound 7.57, DEUTERATED-(3- EXO)-3-[6-ACETYL-7- AMINO-3-(5,6,7,8- TETRAHYDRO-8- HYDROXY-3- QUINOLINYL- (D))PYRAZOLO[1,5- a]PYRIMIDIN-5-YL]-8- (4H-1,2,4-TRIAZOL-3- YLCARBONYL)-8- AZABICYCLO[3.2.1] OCTANE] was tested. Which pIC50 ([1]; PC-3, PC3 cells) did it give?
Its pIC50 is 7.00 to 9.00.

What about the pIC50 ([2]; PC-3, PC3 cells) of the same compound?
The pIC50 was 6.00 to 7.00.

CC(=O)c1c([C@@H]2C[C@H]3CC[C@@H](C2)N3C(=O)c2nnc[nH]2)nc2c(-c3ccc(N)nc3)cnn2c1N [Compound 8.48, 1-(5-((1R,3s,5S)-8-(4H-1,2,4-triazole-3-carbonyl)-8-azabicyclo[3.2.1]octan-3-yl)-7-amino-3-(6-aminopyridin-3-yl)pyrazolo[1,5-a]pyrimidin-6-yl)ethanone] was tested. Which pIC50 ([1]; PC-3, PC3 cells) did it give?
The pIC50 was 7.00 to 9.00.

What about the pIC50 ([2]; PC-3, PC3 cells) of the same compound?
Its pIC50 is 7.00 to 9.00.

COc1ccc(-c2ccc(-c3cnn4c(N)c(C(C)=O)c([C@@H]5C[C@H]6CC[C@@H](C5)N6C(=O)c5nnc[nH]5)nc34)cn2)cc1C#N [Compound 1.1.124, 5-(5-(5-((1R,3s,5S)-8-(4H-1,2,4-triazole-3-carbonyl)-8-azabicyclo[3.2.1]octan-3-yl)-6-acetyl-7-aminopyrazolo[1,5-a]pyrimidin-3-yl)pyridin-2-yl)-2-methoxybenzonitrile] was tested. Which pIC50 [1, 3] did it give?
Its pIC50 is 6.00 to 7.00.

And the pIC50 [2, 3]?
The pIC50 was 6.00 to 7.00.

COCC(=O)N1[C@@H]2CC[C@H]1C[C@H](c1nc3c(-c4ccc(-c5ncc[nH]5)nc4)cnn3c(N)c1C(C)=O)C2 [Compound 6.16, 1-((1R,3s,5S)-3-(3-(6-(1H-imidazol-2-yl)pyridin-3-yl)-6-acetyl-7-aminopyrazolo[1,5-a]pyrimidin-5-yl)-8-azabicyclo[3.2.1]octan-8-yl)-2-methoxyethanone] was tested. Which pIC50 ([1]; PC-3, Table 6-1, PC3 cells) did it give?
Its pIC50 is 7.00 to 9.00.

And the pIC50 ([2]; PC-3, Table 6-1, PC3 cells)?
Its pIC50 is 7.00 to 9.00.

CCc1c([C@@H]2C[C@H]3CC[C@@H](C2)N3C(=O)CO)nc2c(-c3ccc(-c4ncc[nH]4)nc3)cnn2c1N [Compound 6.5, 1-((1R,3s,5S)-3-(3-(6-(1H-imidazol-2-yl)pyridin-3-yl)-7-amino-6-ethylpyrazolo[1,5-a]pyrimidin-5-yl)-8-azabicyclo[3.2.1]octan-8-yl)-2-hydroxyethanone] was tested. Which pIC50 ([1]; PC-3, Table 6-1, PC3 cells) did it give?
The pIC50 was 7.00 to 9.00.

What about the pIC50 ([2]; PC-3, Table 6-1, PC3 cells) of the same compound?
Its pIC50 is 7.00 to 9.00.

What does the source list for Cc1nc(-c2ccc(-c3cnn4c(N)c(S(C)(=O)=O)c([C@@H]5C[C@H]6CC[C@@H](C5)N6C(=O)c5cn[nH]n5)nc34)cn2)cs1 [Compound 3.201, ((1R,3s,5S)-3-(7-amino-6-(methylsulfonyl)-3-(6-(2-methylthiazol-4-yl)pyridin-3-yl)pyrazolo[1,5-a]pyrimidin-5-yl)-8-azabicyclo[3.2.1]octan-8-yl)(2H-1,2,3-triazol-4-yl)methanone]?
pIC50 ([1]; PC-3, Table 3-1, PC3 cells): 5.00 to 6.00; pIC50 ([2]; PC-3, Table 3-1, PC3 cells): 6.00 to 7.00

CC(=O)c1c([C@@H]2C[C@H]3CC[C@@H](C2)N3C(=O)CO)nc2c(-c3ccc(-c4ccccc4)nc3)cnn2c1N [Compound 1.1.5, 1-((1R,3s,5S)-3-(6-acetyl-7-amino-3-(6-phenylpyridin-3-yl)pyrazolo[1,5-a]pyrimidin-5-yl)-8-azabicyclo[3.2.1]octan-8-yl)-2-hydroxyethanone] was tested. Which pIC50 [1, 3] did it give?
Its pIC50 is 7.00 to 9.00.

What about the pIC50 [2, 3] of the same compound?
The pIC50 was 7.00 to 9.00.

With CC(=O)c1c([C@@H]2C[C@H]3CC[C@@H](C2)N3C(=O)CO)nc2c(-c3ccc(-c4ncc[nH]4)nc3)cnn2c1N [Compound 6.3, 1-((1R,3s,5S)-3-(3-(6-(1H-imidazol-2-yl)pyridin-3-yl)-6-acetyl-7-aminopyrazolo[1,5-a]pyrimidin-5-yl)-8-azabicyclo[3.2.1]octan-8-yl)-2-hydroxyethanone] as the compound, how does the pIC50 ([1]; PC-3, Table 6-1, PC3 cells) read?
The pIC50 was 7.00 to 9.00.

And the pIC50 ([2]; PC-3, Table 6-1, PC3 cells)?
The pIC50 was 7.00 to 9.00.

How did the pIC50 [1, 3] turn out when CC(=O)c1c([C@@H]2C[C@H]3CC[C@@H](C2)N3C(=O)CO)nc2c(-c3ccc(-c4ncn(C)n4)nc3)cnn2c1N [Compound 1.1.89, 1-((1R,3s,5S)-3-(6-acetyl-7-amino-3-(6-(1-methyl-1H-1,2,4-triazol-3-yl)pyridin-3-yl)pyrazolo[1,5-a]pyrimidin-5-yl)-8-azabicyclo[3.2.1]octan-8-yl)-2-hydroxyethanone] was run?
Its pIC50 is 6.00 to 7.00.

And the pIC50 [2, 3]?
Its pIC50 is 6.00 to 7.00.

Nc1c(C2CC2)c([C@H]2CC3CC[C@H](C2)N3C(=O)c2nnc[nH]2)nc2c(-c3cnc4c(c3)OCCC4O)cnn12 (stereo partly drawn) [Compound 7.64, ((1R,3s,5S)-3-(7-amino-6-cyclopropyl-3-(4-hydroxy-3,4-dihydro-2H-pyrano[3,2-b]pyridin-7-yl)pyrazolo[1,5-a]pyrimidin-5-yl)-8-azabicyclo[3.2.1]octan-8-yl)(4H-1,2,4-triazol-3-yl)methanone] was tested. Which pIC50 ([1]; PC-3, PC3 cells) did it give?
The pIC50 was 6.00 to 7.00.

And the pIC50 ([2]; PC-3, PC3 cells)?
Its pIC50 is 6.00 to 7.00.

What does the source list for CC(=O)Nc1nnc(C(=O)N2[C@@H]3CC[C@H]2C[C@H](c2nc4c(-c5ccc(-c6ccccc6)nc5)cnn4c(N)c2S(C)(=O)=O)C3)[nH]1 [Compound 3.89]?
pIC50 ([1]; PC-3, Table 3-1, PC3 cells): 6.00 to 7.00; pIC50 ([2]; PC-3, Table 3-1, PC3 cells): 6.00 to 7.00

COc1cc(F)cc2cc(-c3cnn4c(N)c(C(C)=O)c([C@@H]5C[C@H]6CC[C@@H](C5)N6C(=O)c5nnc[nH]5)nc34)cnc12 [Compound 1.1.182, 1-(5-((1R,3r,5S)-8-(4H-1,2,4-triazole-3-carbonyl)-8-azabicyclo[3.2.1]octan-3-yl)-7-amino-3-(6-fluoro-8-methoxyquinolin-3-yl)pyrazolo[1,5-a]pyrimidin-6-yl)ethanone] was tested. Which pIC50 [1, 3] did it give?
The pIC50 was 7.00 to 9.00.

And the pIC50 [2, 3]?
The pIC50 was 7.00 to 9.00.

What does the source list for Cn1cnc(-c2ccc(-c3cnn4c(N)cc([C@@H]5C[C@H]6CC[C@@H](C5)N6C(=O)c5nnc[nH]5)nc34)cn2)n1 [Compound 2.10, ((1R,3s,5S)-3-(7-amino-3-(6-(1-methyl-1H-1,2,4-triazol-3-yl)pyridin-3-yl)pyrazolo[1,5-a]pyrimidin-5-yl)-8-azabicyclo[3.2.1]octan-8-yl)(4H-1,2,4-triazol-3-yl)methanone]?
pIC50 [1, 3]: < 5.00; pIC50 [2, 3]: < 5.00

With CCc1ccc(-c2cnn3c(N)c(C(C)=O)c([C@@H]4C[C@H]5CC[C@@H](C4)N5C(=O)c4nnc[nH]4)nc23)cn1 [Compound 1.1.99, 1-(5-((1R,3s,5S)-8-(4H-1,2,4-triazole-3-carbonyl)-8-azabicyclo[3.2.1]octan-3-yl)-7-amino-3-(6-ethylpyridin-3-yl)pyrazolo[1,5-a]pyrimidin-6-yl)ethanone] as the compound, how does the pIC50 [1, 3] read?
The pIC50 was 7.00 to 9.00.

And the pIC50 [2, 3]?
Its pIC50 is 7.00 to 9.00.
